In one assay the target is AVPR1A (Homo sapiens, UniProt P37288). The experiment in a line: Calcium Flux AVPR1A Antagonist. The class given is cell-based. The conditions noted are these: for IC50: read-out: RC50, result type IC50; for Emax: read-out: Max response. Here is the method: (≤0.2% DMSO concentration). Assays were performed in 1× dye loading buffer consisting of 1× Dye (DiscoverX, Calcium No Wash^PLUS kit, Catalog No. 90-0091), 1× Additive A and 2.5 mM Probenecid in HBSS/20 mM HEPES. Probenecid was prepared fresh. Prior to testing, media was aspirated from cells and replaced with 25 μL dye loading buffer. Cells were incubated for 45 min at 37° C. and then 20 min at RT. For agonist determination, 25 μL of 2× compound in HBSS/20 mM HEPES was added using a FLIPR Tetra (MDS). […] 25 μL of 2× sample was added and cells were incubated for 30 min at RT in the dark to equilibrate plate temperature. After incubation, antagonist determination was initiated by addition of 25 μL of 1× compound with 3×EC80 agonist using FLIPR. For both agonist and antagonist formats, activity was measure on a FLIPR Tetra (MDS). Calcium mobilization was monitored for 2 min with a 5 sec baseline read.
FLIPR read—Area under the curve, was calculated for the entire 2 min read.
For orientation: Calcium flux is commonly read through the fluorescence of an indicator in the cells.

A further assay has as its target ADRB2 (Homo sapiens, UniProt P07550). Briefly: cAMP ADRB2 Antagonist. The class given is cell-based. The conditions noted are these: for Emax: read-out: Max response. Here is the method: cAMP Hunter cell lines were expanded from freezer stocks. […] For Gi agonist determination, cells were incubated with sample in the presence of EC80 forskolin to induce response. For both conditions, media was aspirated from cells and replaced with 15 μL 2:1 HBSS/10 mM HEPES:cAMP XS+ Ab reagent. […] 5 μL of 4× sample was added to cells and incubated at 37° C. or room temperature (RT) for 30 or 60 min. Final assay vehicle concentration was 1%. […] Media was aspirated from cells and replaced with 10 μL 1:1 HBSS/HEPES:cAMP XS+ Ab reagent. […] For Gi coupled GPCRs, EC80 forskolin was included. […] Compound activity was analyzed using CBIS data analysis suite (ChemInnovation, CA).

The next assay has as its target nAChR (a4/b2) (Homo sapiens, UniProt P17787+P43681). Briefly: Ion Channel nAChR (a4/b2) Opener. The conditions noted are these: for Emax: Ion Channel nAChR (a4/b2) Opener, read-out: Max response. The class given is cell-based.
Another assay has as its target T1, MAOA (Homo sapiens, UniProt P21397).
T1 construct: purchased Sigma
T1 sequence (P21397 1-527): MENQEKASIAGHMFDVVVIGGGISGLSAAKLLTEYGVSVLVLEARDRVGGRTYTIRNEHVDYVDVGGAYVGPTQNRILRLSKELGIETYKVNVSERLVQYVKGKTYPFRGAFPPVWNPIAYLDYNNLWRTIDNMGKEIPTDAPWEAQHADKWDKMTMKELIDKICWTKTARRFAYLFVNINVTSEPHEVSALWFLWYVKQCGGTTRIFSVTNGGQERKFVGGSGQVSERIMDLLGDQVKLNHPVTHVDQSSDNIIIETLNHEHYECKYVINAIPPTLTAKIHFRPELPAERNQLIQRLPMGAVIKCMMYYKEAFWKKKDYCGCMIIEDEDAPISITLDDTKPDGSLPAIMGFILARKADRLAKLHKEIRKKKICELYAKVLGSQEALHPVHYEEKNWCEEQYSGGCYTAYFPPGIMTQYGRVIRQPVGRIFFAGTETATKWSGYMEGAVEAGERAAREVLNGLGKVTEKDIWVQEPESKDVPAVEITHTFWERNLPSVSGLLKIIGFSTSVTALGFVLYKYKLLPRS
Briefly: Enzymatic MAOA Inhibitor. The class given is biochemical. The conditions noted are these: for Emax: read-out: Max response. Here is the method: Enzyme preparations were sourced from various vendors-AChE (R&D Systems), COX1 and COX2 (BPS Bioscience), MAOA (Sigma), PDE3A and PDE4D2 (Signal Chem). AChE: enzyme and test compound were pre-incubated for 15 min at RT before substrate addition. Acetylthiocholine and DTNB were added and incubated at RT for 30 min. Signal was detected by measuring absorbance at 405 nm. COX1 and COX2: enzyme stocks were diluted in assay buffer (40 mM Tris-HCl, 1×PBS, 0.5 mM Phenol, 0.01% Tween 20 and 10 nM Hematin) and allowed to equilibrate with compounds at RT for 30 min (binding incubation). Arachidonic acid (1.7 μM) and Ampliflu Red (2.5 μM) were prepared and dispended into a reaction plate. Plates were read immediately on a fluorimeter with the emission detection at 590 nm and excitation wavelength 544 nm. MAOA: enzyme and test compound were pre-incubated for 15 min at 37° C. before substrate addition. The reaction was initiated by addition of kynuramine and incubated at 37° C. for 30 min. The reaction was terminated by addition of NaOH. The amount of 4-hydroquinoline formed was determined through spectrofluorometric readout with the emission detection at 380 nm and excitation wavelength 310 nm. PDE3A and PDE4D2: enzyme and test compound were pre-incubated for 15 min at RT before substrate addition. cAMP substrate (at a concentration equal to EC80) was added and incubated at RT for 30 min. Enzyme reaction was terminated by addition of 9 mM IBMX. Signal was detected using the HitHunter® cAMP detection kit. Microplates were transferred to a PerkinElmer Envision™ instrument and read out as described for each assay. […] For enzyme activity assays, percentage inhibition was calculated using the following equation: […]

The next assay has as its target T2, NET (Homo sapiens, UniProt P23975).
T2 construct: Eurofins DiscoverX Corporation 87-1003DR; host or cells: unnamed cell lines
The experiment in a line: Transporter NET Blocker. The class given is cell-based. The conditions noted are these: for Emax: Transporter NET Blocker, read-out: Max response. Here is the method:
After cell plating and incubation, media was removed an 25 μL of 1× compound in 1×HBSS/0.1% BSA was added. Compounds were incubated with cells for 30 min at 37° C. After compound incubation, 25 μL of 1× dye loading buffer (1× dye, 1×HBSS/20 mM HEPES) was added to the wells. Cells were incubated for 30-60 min at 37° C. After incubation, microplates were transferred to a PerkinElmer Envision™ instrument for fluorescent signal detection. […] For blocker mode assays, percentage of inhibition was calculated using the following formula: […]

The next assay addresses OPRM1 (Homo sapiens, UniProt P35372). The experiment in a line: cAMP OPRM1 Agonist. The conditions noted are these: for Emax: OPRM1, read-out: Max response.
The target in a further assay is DRD1 (Homo sapiens, UniProt P21728). The experiment in a line: cAMP DRD1 Antagonist. The conditions noted are these: for Emax: read-out: Max response.

For two molecules, IC50, Emax and EC50 results are on record in patent US20250186408A1, “TREATMENT OF PHARMACORESISTANT EPILEPSY” (Katholieke Universiteit Leuven, priority 2021, published 2025).

Where two headings read alike, the source gives them in different places.

Chain of OPRM1 (P35372 whole entry): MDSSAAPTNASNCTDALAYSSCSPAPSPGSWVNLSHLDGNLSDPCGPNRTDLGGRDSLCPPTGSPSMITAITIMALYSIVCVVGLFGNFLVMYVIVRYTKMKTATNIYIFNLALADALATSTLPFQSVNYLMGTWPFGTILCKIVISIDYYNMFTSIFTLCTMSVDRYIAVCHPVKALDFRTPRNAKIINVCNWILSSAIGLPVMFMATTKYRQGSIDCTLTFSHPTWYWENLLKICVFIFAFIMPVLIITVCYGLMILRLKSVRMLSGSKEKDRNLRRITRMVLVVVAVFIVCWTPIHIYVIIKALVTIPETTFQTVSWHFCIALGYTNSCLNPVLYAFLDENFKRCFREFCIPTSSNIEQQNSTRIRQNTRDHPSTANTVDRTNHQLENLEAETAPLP
Chain of nAChR (a4/b2) (P43681 29-627 limits assumed): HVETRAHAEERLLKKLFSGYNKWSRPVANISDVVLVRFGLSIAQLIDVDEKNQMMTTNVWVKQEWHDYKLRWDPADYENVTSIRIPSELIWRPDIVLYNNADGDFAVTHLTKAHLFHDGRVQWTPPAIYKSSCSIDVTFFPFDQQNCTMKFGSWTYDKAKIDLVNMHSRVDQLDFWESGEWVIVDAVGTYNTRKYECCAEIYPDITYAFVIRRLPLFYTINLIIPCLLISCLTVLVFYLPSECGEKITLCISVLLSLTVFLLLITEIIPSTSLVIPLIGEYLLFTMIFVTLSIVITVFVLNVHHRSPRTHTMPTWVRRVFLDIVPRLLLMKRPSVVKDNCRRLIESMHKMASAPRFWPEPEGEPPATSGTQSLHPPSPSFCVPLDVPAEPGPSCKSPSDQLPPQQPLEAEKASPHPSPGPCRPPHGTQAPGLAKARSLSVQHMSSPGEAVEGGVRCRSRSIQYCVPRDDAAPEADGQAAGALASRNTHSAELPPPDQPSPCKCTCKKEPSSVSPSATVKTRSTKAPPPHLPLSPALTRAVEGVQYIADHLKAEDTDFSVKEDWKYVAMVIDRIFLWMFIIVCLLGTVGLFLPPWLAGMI
Chain of nAChR (a4/b2) (P17787 26-502): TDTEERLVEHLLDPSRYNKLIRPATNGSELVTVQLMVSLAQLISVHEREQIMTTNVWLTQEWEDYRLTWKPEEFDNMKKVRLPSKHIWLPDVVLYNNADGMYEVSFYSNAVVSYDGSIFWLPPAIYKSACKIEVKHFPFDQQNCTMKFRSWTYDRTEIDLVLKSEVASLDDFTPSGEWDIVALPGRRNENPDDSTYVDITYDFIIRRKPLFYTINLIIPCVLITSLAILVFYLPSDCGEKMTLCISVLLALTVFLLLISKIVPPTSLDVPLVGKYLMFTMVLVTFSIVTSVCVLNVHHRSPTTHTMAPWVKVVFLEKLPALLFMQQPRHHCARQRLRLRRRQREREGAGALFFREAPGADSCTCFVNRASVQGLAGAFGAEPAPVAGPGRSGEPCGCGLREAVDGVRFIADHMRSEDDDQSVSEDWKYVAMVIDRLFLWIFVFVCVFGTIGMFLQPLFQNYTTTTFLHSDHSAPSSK
Chain of AVPR1A (P37288 whole entry): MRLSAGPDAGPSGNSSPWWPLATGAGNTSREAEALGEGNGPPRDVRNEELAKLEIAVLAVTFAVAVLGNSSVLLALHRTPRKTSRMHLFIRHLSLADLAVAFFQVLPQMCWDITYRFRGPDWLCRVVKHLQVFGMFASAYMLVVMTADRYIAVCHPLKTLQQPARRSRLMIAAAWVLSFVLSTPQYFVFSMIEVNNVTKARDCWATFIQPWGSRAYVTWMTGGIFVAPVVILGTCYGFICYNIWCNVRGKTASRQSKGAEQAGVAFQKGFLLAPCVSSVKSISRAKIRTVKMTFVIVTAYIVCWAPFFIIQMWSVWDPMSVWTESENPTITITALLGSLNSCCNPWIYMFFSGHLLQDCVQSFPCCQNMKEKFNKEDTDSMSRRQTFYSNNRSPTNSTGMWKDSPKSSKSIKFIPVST
Chain of DRD1 (P21728 whole entry): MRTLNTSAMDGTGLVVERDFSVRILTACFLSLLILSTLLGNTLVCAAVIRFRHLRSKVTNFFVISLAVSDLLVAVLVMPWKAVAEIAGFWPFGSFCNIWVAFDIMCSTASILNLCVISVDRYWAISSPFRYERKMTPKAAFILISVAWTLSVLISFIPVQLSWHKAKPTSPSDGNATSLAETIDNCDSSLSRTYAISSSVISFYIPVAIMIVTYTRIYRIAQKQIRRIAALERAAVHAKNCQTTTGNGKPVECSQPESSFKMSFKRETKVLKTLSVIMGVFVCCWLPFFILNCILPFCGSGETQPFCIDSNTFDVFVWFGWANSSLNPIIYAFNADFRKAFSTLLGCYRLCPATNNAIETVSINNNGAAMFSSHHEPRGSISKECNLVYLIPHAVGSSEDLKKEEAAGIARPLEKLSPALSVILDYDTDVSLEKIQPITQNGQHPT
Chain of ADRB2 (P07550 whole entry): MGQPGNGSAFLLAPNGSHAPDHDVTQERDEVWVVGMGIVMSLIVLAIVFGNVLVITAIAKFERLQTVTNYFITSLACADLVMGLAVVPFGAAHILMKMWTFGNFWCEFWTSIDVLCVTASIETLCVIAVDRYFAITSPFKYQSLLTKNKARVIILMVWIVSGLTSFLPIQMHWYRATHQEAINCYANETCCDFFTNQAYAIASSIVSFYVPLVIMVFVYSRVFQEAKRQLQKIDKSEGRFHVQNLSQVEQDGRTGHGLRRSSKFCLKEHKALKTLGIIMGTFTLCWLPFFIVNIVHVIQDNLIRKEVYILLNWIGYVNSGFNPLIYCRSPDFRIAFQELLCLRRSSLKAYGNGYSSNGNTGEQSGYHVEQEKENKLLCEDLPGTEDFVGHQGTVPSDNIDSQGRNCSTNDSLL
T2 sequence (P23975 whole entry): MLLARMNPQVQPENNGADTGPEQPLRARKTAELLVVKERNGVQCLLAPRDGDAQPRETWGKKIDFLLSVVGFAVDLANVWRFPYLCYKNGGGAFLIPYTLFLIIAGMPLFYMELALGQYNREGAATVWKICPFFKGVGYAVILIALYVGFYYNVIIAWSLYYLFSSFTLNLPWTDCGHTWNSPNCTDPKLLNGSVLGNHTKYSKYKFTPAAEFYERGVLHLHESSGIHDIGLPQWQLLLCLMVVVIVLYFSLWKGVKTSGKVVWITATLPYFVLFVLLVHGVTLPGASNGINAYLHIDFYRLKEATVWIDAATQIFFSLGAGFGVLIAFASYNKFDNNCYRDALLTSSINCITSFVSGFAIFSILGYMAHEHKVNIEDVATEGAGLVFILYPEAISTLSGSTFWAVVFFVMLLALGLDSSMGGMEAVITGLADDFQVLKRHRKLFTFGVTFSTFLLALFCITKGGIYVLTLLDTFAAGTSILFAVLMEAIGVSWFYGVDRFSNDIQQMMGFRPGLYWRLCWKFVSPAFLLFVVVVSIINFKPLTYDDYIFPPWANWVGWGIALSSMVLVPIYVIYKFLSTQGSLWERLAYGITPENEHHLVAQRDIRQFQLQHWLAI
Experimental for DRD1: (§1) In vitro pharmacological profiling of compounds was done against 78 functional assays for 47 common off-targets (30) by Eurofins DiscoverX Corporation (Fremont, CA, USA) using their SAFETYscan E/IC50 ELECT service (Cat Ref 87-1003DR, Safety47 Panel Dose Response). […] Compounds were tested in a range of 10 concentrations, following a 3-fold serial dilution, starting from 10 μM.
cAMP Hunter cell lines were expanded from freezer stocks. Prior to testing, cells were seeded in a total volume of 20 μL into white walled 384-well microplates and incubated at 37° C. cAMP modulation was determined using the DiscoverX HitHunter cAMP XS+ assay. For Gs agonist determination, cells were incubated with sample to induce response. For Gi agonist determination, cells were incubated with sample in the presence of EC80 forskolin to induce response. For both conditions, media was aspirated from cells and replaced with 15 μL 2:1 HBSS/10 mM HEPES:cAMP XS+ Ab reagent. Intermediate dilution of sample stocks was performed to generate 4× sample in assay buffer (containing 4×EC80 forskolin in the case of antagonist determination). 5 μL of 4× sample was added to cells and incubated at 37° C. or room temperature (RT) for 30 or 60 min. Final assay vehicle concentration was 1%. For antagonist determination, cells were pre-incubated with sample followed by agonist challenge at the EC80 concentration. Media was aspirated from cells and replaced with 10 μL 1:1 HBSS/HEPES:cAMP XS+ Ab reagent. 5 μL of 4× compound was added to the cells and incubated at 37° C. or RT for 30 min. 5 μL of 4×EC80 agonist was added to the cells and incubated at 37° C. or RT for 30 or 60 min. For Gi coupled GPCRs, EC80 forskolin was included. […] Microplates were read following signal generation with a PerkinElmer Envision™ instrument for chemiluminescent signal detection. Compound activity was analyzed using CBIS data analysis suite (ChemInnovation, CA).
Experimental for OPRM1: as §1
cAMP Hunter cell lines were expanded from freezer stocks. Prior to testing, cells were seeded in a total volume of 20 μL into white walled 384-well microplates and incubated at 37° C. cAMP modulation was determined using the DiscoverX HitHunter cAMP XS+ assay. For Gs agonist determination, cells were incubated with sample to induce response. For Gi agonist determination, cells were incubated with sample in the presence of EC80 forskolin to induce response. For both conditions, media was aspirated from cells and replaced with 15 μL 2:1 HBSS/10 mM HEPES:cAMP XS+ Ab reagent. Intermediate dilution of sample stocks was performed to generate 4× sample in assay buffer (containing 4×EC80 forskolin in the case of antagonist determination). 5 μL of 4× sample was added to cells and incubated at 37° C. or room temperature (RT) for 30 or 60 min. Final assay vehicle concentration was 1%. For antagonist determination, cells were pre-incubated with sample followed by agonist challenge at the EC80 concentration. Media was aspirated from cells and replaced with 10 μL 1:1 HBSS/HEPES:cAMP XS+ Ab reagent. 5 μL of 4× compound was added to the cells and incubated at 37° C. or RT for 30 min. 5 μL of 4×EC80 agonist was added to the cells and incubated at 37° C. or RT for 30 or 60 min. For Gi coupled GPCRs, EC80 forskolin was included. […] Microplates were read following signal generation with a PerkinElmer Envision™ instrument for chemiluminescent signal detection. Compound activity was analyzed using CBIS data analysis suite (ChemInnovation, CA). For Gs agonist mode assays, percentage activity was calculated using the following equation:

For `CC(C)(C)c1ccc(C#CC(O)c2ccccc2)cc1` (racemic) [Compound 3.3, rac-3-(4-(tert-butyl)phenyl)-1-phenylprop-2-yn-1-ol], the 50% inhibitory concentration (IC50) on AVPR1A (Calcium Flux AVPR1A Antagonist), against ADRB2, at MAOA, at NET and against DRD1 was > 10 µM throughout. In addition, the Emax on AVPR1A worked out at 0%; on ADRB2 it was 0%; on nAChR (a4/b2) it was 0%; at MAOA, 4.4%; on NET it was 0%; at OPRM1 it was 0%. Besides, the Emax on DRD1 came to 2.7%. Moreover, the EC50 at nAChR (a4/b2) and on OPRM1 was > 10 µM throughout.
Turning to `Clc1cccc(C#Cc2n[nH]c3ncccc23)c1` [Compound 10.1, 3-((3-chlorophenyl)ethynyl)-1H-pyrazolo[3,4-b]pyridine], the Emax on AVPR1A (Calcium Flux AVPR1A Antagonist) turned out to be 0%; on ADRB2 (cAMP ADRB2 Antagonist), 39.9%; at nAChR (a4/b2) it was 0%; on MAOA (Enzymatic MAOA Inhibitor), 12.4%; at NET it was 13.6%; on OPRM1, 9.9%. Moreover, the Emax at DRD1 turned out to be 17.2%. Besides, the IC50 (usually the concentration that gives 50% inhibition) was > 10 µM on AVPR1A (Calcium Flux AVPR1A Antagonist); > 10 µM on ADRB2 (cAMP ADRB2 Antagonist, read-out: RC50, result type IC50); > 10 µM on MAOA (Enzymatic MAOA Inhibitor, read-out: RC50, result type IC50); > 10 µM against NET; > 10 µM against DRD1. For the same molecule, the half-maximal effective concentration (EC50) on nAChR (a4/b2) and on OPRM1 was > 10 µM in each case.
